Type in all cases: in vitro ADME
Series [1] is described as follows: Assay 1. Stability in Simulated Gastric Fluid (SGF). The procedure, abridged:
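Degradation rate from LC/MS of acetonitrile-quenched aliquots (T0, then regular intervals). Fresh SGF (pH 1.6 NaCl, FaSSIF powder, pepsin 0.1 mg/mL) held compound at 1 μM final, 37° C; 1 mM DMSO stock.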

A short description of series [2]: Assay 2. Stability in Simulated Intestinal Fluid (SIF). To be noted: SIF pH 6.7 with pancreatin, 1 μM, 37° C. The procedure, abridged:
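Degradation rates came from LC/MS of acetonitrile-quenched samples drawn at intervals, starting at T0. The medium was freshly made pH 6.7 FaSSIF containing pancreatin, and test compound was present at 1 µM while being shaken at 37 °C.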

Series [3] is described as follows: Assay 3. In vitro Colonic Material Stability Assay. To be noted: colonic material slurry, anaerobic, 1 or 10 μM.
The mark [4] stands for this setting: SGF pH 1.6 with pepsin, 1 μM, 37° C.

The values that follow come from patent US12115178B2, “Acylated active agents and methods of their use for the treatment of autoimmune disorders” (Flagship Pioneering Innovations V, Inc., priority 2018, dated 2024).

Take `CCC(=O)O[C@@H]1[C@@H](OC(=O)CC)[C@H](C)O[C@@H](OC(=O)Cc2c[nH]c3ccccc23)[C@@H]1OC(=O)CC` [Compound 115, (2S,3R,4R,5S,6S)-2-{[2-(1H-indol-3-yl)acetyl]oxy}-6-methyl-4,5-bis(propanoyloxy)oxan-3-yl propanoate]: the “Assay 1 (SGF) (% Remaining @ 1 hour)” value in series [1] (setting [4]) is on record as “C (>75% of the tested compound remaining)”. The “Assay 2 (SIF) (% @ Remaining 4 hours)” value in series [2] is “A (<25% of the tested compound remaining)”. Besides, in series [3], the “Assay 3 (% Remaining at 24 h)” value is listed as “A (<25% of the tested compound remaining)”.

For the molecule `CCC(=O)O[C@@H]1[C@@H](OC(=O)CC)[C@H](OC(=O)/C=C/c2c[nH]c3ccccc23)OC[C@H]1OC(=O)CC` [Compound 91, (2S,3R,4S,5R)-3,4,5-tris(propanoyloxy)oxan-2-yl (2E)-3-(1H-indol-3-yl)prop-2-enoate], the “Assay 1 (SGF) (% Remaining @ 1 hour)” value in series [1] (setting [4]) is given as “C (>75% of the tested compound remaining)”. In addition, in series [2], the “Assay 2 (SIF) (% @ Remaining 4 hours)” value is “A (<25% of the tested compound remaining)”. Further, the “Assay 3 (% Remaining at 24 h)” value in series [3] is reported as “A (<25% of the tested compound remaining)”.

As for `O=C(CCc1c[nH]c2ccccc12)O[C@H]1OC[C@H](OC(=O)CCc2c[nH]c3ccccc23)[C@H](OC(=O)CCc2c[nH]c3ccccc23)[C@H]1OC(=O)CCc1c[nH]c2ccccc12` [Compound 149, (2R,3R,4S,5S)-3,4,5-tris({[3-(1H-indol-3-yl)propanoyl]oxy})oxan-2-yl 3-(1H-indol-3-yl)propanoate], in series [1] (setting [4]), the “Assay 1 (SGF) (% Remaining @ 1 hour)” value was “B (25-75% of the tested compound remaining)”. Also, the “Assay 2 (SIF) (% @ Remaining 4 hours)” value in series [2] is listed as “A (<25% of the tested compound remaining)”. In addition, in series [3], the “Assay 3 (% Remaining at 24 h)” value is “A (<25% of the tested compound remaining)”.

Turning to `CCCC(=O)OC[C@H]1O[C@@H](OC(=O)CCc2c[nH]c3ccccc23)[C@H](OC(=O)CCC)[C@@H](OC(=O)CCC)[C@@H]1OC(=O)CCC` [Compound 85, [(2R,3R,4S,5R,6S)-3,4,5-tris(butanoyloxy)-6-{[3-(1H-indol-3-yl)propanoyl]oxy}oxan-2-yl]methyl butanoate], the “Assay 1 (SGF) (% Remaining @ 1 hour)” value in series [1] (setting [4]) is on record as “B (25-75% of the tested compound remaining)”. Also, the “Assay 2 (SIF) (% @ Remaining 4 hours)” value in series [2] is “A (<25% of the tested compound remaining)”. The “Assay 3 (% Remaining at 24 h)” value in series [3] is “A (<25% of the tested compound remaining)”.

Turning to `CCC(=O)O[C@@H]1[C@@H](OC(=O)CC)[C@H](OC(=O)Cc2c[nH]c3ccccc23)OC[C@H]1OC(=O)CC` [Compound 76, (2S,3R,4S,5R)-2-{[2-(1H-indol-3-yl)acetyl]oxy}-4,5-bis(propanoyloxy)oxan-3-yl propanoate], in series [1] (setting [4]), the “Assay 1 (SGF) (% Remaining @ 1 hour)” value is reported as “C (>75% of the tested compound remaining)”. Moreover, the “Assay 2 (SIF) (% @ Remaining 4 hours)” value in series [2] is on record as “A (<25% of the tested compound remaining)”. In series [3], the “Assay 3 (% Remaining at 24 h)” value is reported as “A (<25% of the tested compound remaining)”.

`CCCC(=O)O[C@@H]1[C@@H](OC(=O)CCC)[C@@H](Oc2ccc(N)cc2C(=O)O)OC[C@@H]1OC(=O)CCC` [Compound 22, 5-amino-2-[(2R,3R,4S,5S)-3,4,5-tri(butanoyloxy)tetrahydropyran-2-yl]oxy-benzoic acid]: the “Assay 1 (SGF) (% Remaining @ 1 hour)” value in series [1] (setting [4]) is listed as “C (>75% of the tested compound remaining)”. Further, the “Assay 2 (SIF) (% @ Remaining 4 hours)” value in series [2] was “B (25-75% of the tested compound remaining)”. Besides, the “Assay 3 (% Remaining at 24 h)” value in series [3] is “B (25-75% of the tested compound remaining)”.

`CC(=O)OC[C@H]1O[C@@H](OC(C)=O)[C@H](N)[C@@H](OC(C)=O)[C@@H]1OC(C)=O` [Compound 162, (2S,3R,4R,5S,6R)-6-(acetoxymethyl)-3-aminotetrahydro-2H-pyran-2,4,5-triyl triacetate]: in series [1] (setting [4]), the “Assay 1 (SGF) (% Remaining @ 1 hour)” value was “C (>75% of the tested compound remaining)”. Besides, the “Assay 2 (SIF) (% @ Remaining 4 hours)” value in series [2] is “A (<25% of the tested compound remaining)”. For the same molecule, in series [3], the “Assay 3 (% Remaining at 24 h)” value is reported as “C (>75% of the tested compound remaining)”.

As for `O=C(CCc1c[nH]c2ccccc12)O[C@@H]1OC[C@H](OC(=O)CCc2c[nH]c3ccccc23)[C@H](OC(=O)CCc2c[nH]c3ccccc23)[C@H]1OC(=O)CCc1c[nH]c2ccccc12` [Compound 69, (2S,3R,4S,5S)-3,4,5-tris({[3-(1H-indol-3-yl)propanoyl]oxy})oxan-2-yl 3-(1H-indol-3-yl)propanoate], the “Assay 1 (SGF) (% Remaining @ 1 hour)” value in series [1] (setting [4]) was “B (25-75% of the tested compound remaining)”. Besides, the “Assay 2 (SIF) (% @ Remaining 4 hours)” value in series [2] was “A (<25% of the tested compound remaining)”. The “Assay 3 (% Remaining at 24 h)” value in series [3] is given as “A (<25% of the tested compound remaining)”.

With `CCC(=O)O[C@H]1[C@H](OC(=O)CCc2c[nH]c3ccccc23)OC[C@@H](OC(=O)CC)[C@H]1OC(=O)CC` [Compound 98, (2S,3R,4R,5R)-3,4,5-tris(propanoyloxy)oxan-2-yl 3-(1H-indol-3-yl)propanoate], the “Assay 1 (SGF) (% Remaining @ 1 hour)” value in series [1] (setting [4]) is “B (25-75% of the tested compound remaining)”. In addition, in series [2], the “Assay 2 (SIF) (% @ Remaining 4 hours)” value is listed as “A (<25% of the tested compound remaining)”. The “Assay 3 (% Remaining at 24 h)” value in series [3] is listed as “A (<25% of the tested compound remaining)”.

In the case of `CCC(=O)O[C@H]1[C@H](OC)OC[C@@H](OC(=O)CC)[C@H]1OC(=O)CC` [Compound 51, (2R,3R,4R,5R)-2-methoxy-3,5-bis(propanoyloxy)oxan-4-yl propanoate], the “Assay 1 (SGF) (% Remaining @ 1 hour)” value in series [1] (setting [4]) is given as “C (>75% of the tested compound remaining)”. Also, the “Assay 2 (SIF) (% @ Remaining 4 hours)” value in series [2] is reported as “C (>75% of the tested compound remaining)”. Moreover, the “Assay 3 (% Remaining at 24 h)” value in series [3] was “B (25-75% of the tested compound remaining)”.

`CCCC(=O)O[C@@H]1[C@@H](OC(=O)CCC)[C@H](Oc2ccc(N)cc2C(=O)O)OC[C@H]1OC(=O)CCC` [Compound 19, 5-amino-2-[(2S,3R,4S,5R)-3,4,5-tri(butanoyloxy)tetrahydropyran-2-yl]oxy-benzoic acid]: the “Assay 1 (SGF) (% Remaining @ 1 hour)” value in series [1] (setting [4]) is given as “C (>75% of the tested compound remaining)”. Further, the “Assay 2 (SIF) (% @ Remaining 4 hours)” value in series [2] is “B (25-75% of the tested compound remaining)”. The “Assay 3 (% Remaining at 24 h)” value in series [3] is “B (25-75% of the tested compound remaining)”.

With `CCC(=O)O[C@H]1[C@H](OC(=O)CC)[C@H](OC(=O)CCc2c[nH]c3ccccc23)O[C@@H](C)[C@H]1OC(=O)CC` [Compound 123, (2S,3S,4R,5R,6S)-6-methyl-3,4,5-tris(propanoyloxy)oxan-2-yl 3-(1H-indol-3-yl)propanoate], the “Assay 1 (SGF) (% Remaining @ 1 hour)” value is reported as “C (>75% of the tested compound remaining)” in series [1] (Batch 1, SGF) and “B (25-75% of the tested compound remaining)” in series [1] (Batch 2, SGF). Also, the “Assay 2 (SIF) (% @ Remaining 4 hours)” value in series [2] is “C (>75% of the tested compound remaining)”. Further, the “Assay 3 (% Remaining at 24 h)” value in series [3] is listed as “A (<25% of the tested compound remaining)”.
